Assay results reported in ChEMBL document CHEMBL5543096 (J Med Chem, 2024).
pIC50, pKd: −log10 of the molar value. Active and inactive are the calls of the source. The rule behind the calls is not given here.

How the values were obtained:
[1] = tested on: Mus musculus; test: Antidepressant activity in Reserpine-induced depressive ICR mouse model assessed as change in total distance traveled at 25 to 300 microg/kg,ip administrated on day 4 to 8 measured on day 9 by open field test; assay type: functional, organism-based; conditions: dose 25-300 µg/kg, time 6.0 day
[2] = tested on: Mus musculus; test: Antidepressant activity in Reserpine-induced depressive ICR mouse model assessed as reduction in weight loss at 25 to 300 microg/kg,ip administrated on day 4 to 8 for 5 days; assay type: functional, organism-based; conditions: dose 25-300 µg/kg, time 5.0 day
[3] = tested on: HT-22; test: Neuroprotective activity against CORT-induced cytotoxicity in mouse HT-22 cells assessed as increase in cell viability at 12.5 to 100 uM incubated for 24 hrs by CCK-8 assay; assay type: functional, cell-based; conditions: dose 12.5-100 µM
[4] = tested on: Mus musculus; test: Antidepressant activity in Reserpine-induced depressive C57BL/6J mouse model assessed as decrease in immobility time at 0.1 to 1 mg/kg,ip administration measured after 30 mins by tail suspension test; assay type: functional, organism-based; conditions: dose 0.1-1 mg/kg
[5] = Cmax in Sprague-Dawley rat at 0.3 mg/kg,ip measured at 0.05 to 24 hrs of post administration by LC-MS/MS analysis; assay type: ADME, organism-based; conditions: in vivo, time 0.05-24 hrs
[6] = Tmax in Sprague-Dawley rat at 0.3 mg/kg,iv measured at 0.05 to 24 hrs of post administration by LC-MS/MS analysis; assay type: ADME, organism-based; conditions: in vivo, time 0.05-24 hrs
[7] = Tmax in Sprague-Dawley rat at 0.3 mg/kg,ip measured at 0.05 to 24 hrs of post administration by LC-MS/MS analysis; assay type: ADME, organism-based; conditions: in vivo, time 0.05-24 hrs
[8] = AUC (0 to last) in Sprague-Dawley rat at 0.3 mg/kg,iv measured at 0.05 to 24 hrs of post administration by LC-MS/MS analysis; assay type: ADME, organism-based; conditions: in vivo, time 0.05-24 hrs
[9] = AUC (0 to last) in Sprague-Dawley rat at 0.3 mg/kg,ip measured at 0.05 to 24 hrs of post administration by LC-MS/MS analysis; assay type: ADME, organism-based; conditions: in vivo, time 0.05-24 hrs
[10] = AUC (0 to infinity) in Sprague-Dawley rat at 0.3 mg/kg,iv measured at 0.05 to 24 hrs of post administration by LC-MS/MS analysis; assay type: ADME, organism-based; conditions: in vivo, time 0.05-24 hrs
[11] = AUC (0 to infinity) in Sprague-Dawley rat at 0.3 mg/kg,ip measured at 0.05 to 24 hrs of post administration by LC-MS/MS analysis; assay type: ADME, organism-based; conditions: in vivo, time 0.05-24 hrs
[12] = MRT (0 to infinity) in Sprague-Dawley rat at 0.3 mg/kg,iv measured at 0.05 to 24 hrs of post administration by LC-MS/MS analysis; assay type: ADME, organism-based; conditions: in vivo, time 0.05-24 hrs
[13] = MRT (0 to infinity) in Sprague-Dawley rat at 0.3 mg/kg,ip measured at 0.05 to 24 hrs of post administration by LC-MS/MS analysis; assay type: ADME, organism-based; conditions: in vivo, time 0.05-24 hrs
[14] = Bioavailability in Sprague-Dawley rat at 0.3 mg/kg,ip measured at 0.05 to 24 hrs of post administration by LC-MS/MS analysis; assay type: ADME, organism-based; conditions: in vivo, time 0.05-24 hrs
[15] = tested on: Mus musculus; test: Antidepressant activity in Reserpine-induced depressive ICR mouse model assessed as decrease in immobility time at ip administrated on day 4 to 8 measured on day 10 by forced swimming test; assay type: functional, organism-based; conditions: time 7.0 day
[16] = tested on: Mus musculus; test: Antidepressant activity in Reserpine-induced depressive ICR mouse model assessed as decrease in immobility time at 300 microg/kg,ip administrated on day 4 to 8 measured on day 11 by tail suspension test; assay type: functional, organism-based; conditions: dose 300.0 µg/kg, time 8.0 day
[17] = Toxicity in chronic restraint stress-induced depressive C57BL/6J mouse model assessed as heart pathological change at 25 to 300 microg/kg,ip administrated on day 29 to 33 measured on day 36 by hematoxylin and eosin staining based microscopic analysis; assay type: tissue-based; conditions: in vivo, 192 h, dose 25-300 µg/kg, time 8 day
[18] = Toxicity in chronic restraint stress-induced depressive C57BL/6J mouse model assessed as liver pathological change at 25 to 300 microg/kg,ip administrated on day 29 to 33 measured on day 36 by hematoxylin and eosin staining based microscopic analysis; assay type: tissue-based; conditions: in vivo, 192 h, dose 25-300 µg/kg, time 8 day
[19] = Toxicity in chronic restraint stress-induced depressive C57BL/6J mouse model assessed as lung pathological change at 25 to 300 microg/kg,ip administrated on day 29 to 33 measured on day 36 by hematoxylin and eosin staining based microscopic analysis; assay type: tissue-based; conditions: in vivo, 192 h, dose 25-300 µg/kg, time 8 day
[20] = Toxicity in chronic restraint stress-induced depressive C57BL/6J mouse model assessed as kidney pathological change at 25 to 300 microg/kg,ip administrated on day 29 to 33 measured on day 36 by hematoxylin and eosin staining based microscopic analysis; assay type: tissue-based; conditions: in vivo, 192 h, dose 25-300 µg/kg, time 8 day
[21] = Toxicity in chronic restraint stress-induced depressive C57BL/6J mouse model assessed as decrease in percentage of spontaneous alternation at 1 mg/kg,ip administration by Y-maze test; assay type: organism-based; conditions: in vivo
[22] = Toxicity in chronic restraint stress-induced depressive C57BL/6J mouse model assessed as memory impairment at 4 mg/kg,ip administration and measured after 4 hrs by novel object recognition test; assay type: organism-based; conditions: in vivo
[23] = tested on: Mus musculus; test: Antidepressant activity in chronic restraint stress-induced depressive C57BL/6J mouse model assessed as increase in hippocampal BDNF mRNA expression at 0.3 mg/kg,ip administration measured after 8 hrs by qRT-PCR analysis; assay type: functional, organism-based
[24] = tested on: Mus musculus; test: Antidepressant activity in chronic restraint stress-induced depressive C57BL/6J mouse model assessed as increase in hippocampal BDNF mRNA expression at 0.3 mg/kg,ip administration measured after 24 hrs by qRT-PCR analysis; assay type: functional, organism-based
[25] = tested on: Mus musculus; test: Antidepressant activity in chronic restraint stress-induced depressive C57BL/6J mouse model assessed as increase in hippocampal BDNF protein expression at 0.3 mg/kg,ip administration measured after 24 hrs by Western blotting analysis; assay type: functional, organism-based
[26] = biological target: T1, Muscarinic acetylcholine receptor M1 (Homo sapiens, UniProt P11229); test: Binding affinity to human N-terminal eGFP-tagged CHRM1 expressed in HEK293T cells assessed as dissociation constant incubated for 10 mins by microscale thermophoresis assay; assay type: cell-based
T1 sequence (P11229 whole entry): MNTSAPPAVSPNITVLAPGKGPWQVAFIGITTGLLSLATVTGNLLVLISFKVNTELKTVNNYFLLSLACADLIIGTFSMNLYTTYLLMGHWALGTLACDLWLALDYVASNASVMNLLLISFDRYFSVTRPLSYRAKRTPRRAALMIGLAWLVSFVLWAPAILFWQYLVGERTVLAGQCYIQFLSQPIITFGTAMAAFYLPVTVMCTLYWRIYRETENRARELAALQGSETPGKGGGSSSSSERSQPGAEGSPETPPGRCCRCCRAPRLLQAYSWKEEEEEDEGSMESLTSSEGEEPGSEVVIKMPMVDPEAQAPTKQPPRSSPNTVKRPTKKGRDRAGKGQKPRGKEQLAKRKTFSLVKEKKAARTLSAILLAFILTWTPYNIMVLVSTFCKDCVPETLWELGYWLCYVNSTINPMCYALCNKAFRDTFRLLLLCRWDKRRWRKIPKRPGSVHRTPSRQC

[27] = biological target: T1, Muscarinic acetylcholine receptor M1; test: Antagonist activity at human muscarinic M1 receptor expressed in CHO cells incubated for 10 mins in presence of acetylcholine by inositol 1-phosphate accumulation assay; assay type: functional, cell-based

SMILES: CN1[C@@H]2C[C@@H](OC(=O)[C@@](F)(CO)c3ccccc3)C[C@H]1[C@@H]1O[C@@H]12
- Activity [1]: inactive
- Activity [2]: Active
- Activity [3]: Active
- Activity [4]: Active
- Cmax [5]: 41.9 ng/mL
- Tmax [6]: 3 min
- Tmax [7]: 12.5 min
- AUC(0-t) [8]: 68.3 ng·h/mL
- AUC(0-t) [9]: 24.2 ng·h/mL
- AUC(0-inf) [10]: 71.4 ng·h/mL
- AUC(0-inf) [11]: 25.9 ng·h/mL
- MRT inf [12]: 16.6 min
- MRT inf [13]: 27.3 min
- bioavailability [14]: 35.5%
- Activity [15]: Dose-Dependent Effect
- Activity [16]: Active
- Activity [17]: Non-Toxic
- Activity [18]: Non-Toxic
- Activity [19]: Non-Toxic
- Activity [20]: Non-Toxic
- Activity [21]: Non-Toxic
- Activity [22]: Toxic
- Activity [23]: Active
- Activity [24]: inactive
- Activity [25]: inactive
- pKd [26]: 3.47
- pIC50 [27]: 7.84
